Source: patent US20170029531A1, “INHIBITION OF LACTATE DEHYDROGENASE 5 (LDH-5) BINDING, INCORPORATION, INTERNALIZATION AND/OR ENDOCYTOSIS TO IMMUNE CELLS” (Seattle Children's Hospital (dba Seattle Children's …, priority 2014, published 2017)

Experiments:
primary human NK cells = experiment: NKG2D expression and CD107a degranulation of primary human NK cells after incubation with LDH or lactate; type: cell-based; details: LDH 50 ug/mL or lactate 20 mM; 12 hour (NKG2D, NKp46) or 6 hour after IL-2 (CD107a)
Description: FIG. 2. Biochemical purification of tumor-derived Lactate Dehydrogenase, expression in glioma cell lines and verification of LDH-mediated induction of NKG2D ligands on monocytes. (Panel A) Protein purification strategy. […] of U87 glioblastoma cell line supernatant were subjected to ammonium sulfate precipitation. Active fractions were passed over a phenyl Sepharose column and active fractions were then subjected to size exclusion (Superdex 200), followed by ion exchange (MonoS) before Mass Spectroscopy (MS) analysis. (Panel B) Following separation by chromatography, fractions were dialyzed into PBS and cultured with MHD (healthy monocytes) for 18 hours. Whole cell mRNA was reverse transcribed, and induction of MICB and ULBP-1 was analyzed relative to media alone controls. […] (Panel C) mRNA isolated from PBMC of healthy donors, 293T cells (as negative controls), and U87, U251, and SF767 glioma cell lines were analyzed for expression of LDHA and LDHB by qPCR. (Panel D) A 1:10 dilution of fresh, unfrozen glioblastoma cell line supernatants was analyzed for total LDH enzymatic activity and expressed as OD 495 nm. […] Eighteen hours later, mRNA was isolated and analyzed for MICA, MICB, and ULBP-1 by qPCR. […] Eighteen hours later, mRNA was isolated and analyzed for MICA, MICB and ULBP-1 by qPCR. […] Eighteen hours later, MICB (black bars) and ULBP-1 (gray bars) were measured by qPCR. […]

[1] = system: monocytes from healthy donors; experiment: NKG2D ligand (MICA, MICB, ULBP-1) mRNA induction in monocytes from healthy donors (MHD), qPCR; type: cell-based, human
Description: FIG. 2. Biochemical purification of tumor-derived Lactate Dehydrogenase, expression in glioma cell lines and verification of LDH-mediated induction of NKG2D ligands on monocytes. (Panel A) Protein purification strategy. […] of U87 glioblastoma cell line supernatant were subjected to ammonium sulfate precipitation. Active fractions were passed over a phenyl Sepharose column and active fractions were then subjected to size exclusion (Superdex 200), followed by ion exchange (MonoS) before Mass Spectroscopy (MS) analysis. (Panel B) Following separation by chromatography, fractions were dialyzed into PBS and cultured with MHD (healthy monocytes) for 18 hours. Whole cell mRNA was reverse transcribed, and induction of MICB and ULBP-1 was analyzed relative to media alone controls. Western blot analysis using a monoclonal antibody to LDH-5 (ab101562) was performed on […] of total protein to confirm the presence of LDH-5 in the active fractions. (Panel C) mRNA isolated from PBMC of healthy donors, 293T cells (as negative controls), and U87, U251, and SF767 glioma cell lines were analyzed for expression of LDHA and LDHB by qPCR. (Panel D) A 1:10 dilution of fresh, unfrozen glioblastoma cell line supernatants was analyzed for total LDH enzymatic activity and expressed as OD 495 nm. (Panel E) Validation of LDH induction of NKG2D ligands in monocytes. Six hundred twenty five U/L of purified, native LDH-5, fresh U87 supernatant, or fresh U87 supernatant in the presence of 100 mM sodium oxamate (NaOx) were cultured with MHD. Eighteen hours later, mRNA was isolated and analyzed for MICA, MICB, and ULBP-1 by qPCR. Values represent induction relative to MHD cultured in media alone. (Panel F) Fresh U87 supernatant, 625 U/L of purified, native LDH-5, LDH-5+0.5 mM Pyruvate (Pyr), or LDH-5+0.5 mM pyruvate and 100 mM NaOx were cultured with MHD. Eighteen hours later, mRNA was isolated and analyzed for MICA, MICB and ULBP-1 by qPCR. Values represent induction relative to MHD cultured in media alone. (Panel G) MHD were cultured with native LDH-5 isolated from liver cells. Eighteen hours later, MICB (black bars) and ULBP-1 (gray bars) were measured by qPCR. (Panel H) Expression of NKG2D and NKp46 on primary human NK cells following a 12 hour incubation with LDH (50 ug/mL) or lactate (20 mM). Cells were surface stained with antibodies directed against CD3, CD56, NKG2D, and NKp46 and analyzed by flow cytometry. The expression level of NKG2D and NKp46 are plotted against CD56. (Panel I) Expression of CD107a on primary human NK cells following IL-2 (1000 U/ml) activation and a 6 hour incubation with LDH (50 ug/mL) or lactate (20 mM). Cells were surface stained with antibodies directed against CD3, CD56, and CD107a and analyzed by flow cytometry. Representative data are shown in the top panels, a summary of percent CD107a+NK cells is shown below. (Panel J) 293T cells were transiently transfected with a pcDNA3.1 (−) vector encoding either LDHA or LDHB, or both constructs. Supernatant was then cultured with CD14-positively selected MHD. Eighteen hours later, MICB and ULBP-1 were measured by qPCR. Values represent induction relative to monocytes cultured in media alone. *P<0.05, **P<0.01.
FIG. 21. Purified native LDH5 or LDH1 was cultured with monocytes from healthy donors. Eighteen hours later, MICB and ULBP-1 were measured by qPCR. Values represent induction relative to monocytes cultured in medium alone. […]

U87 = U87 mitochondrial function and viability after overnight LDH5; type: cell-based
Procedure: FIG. 30. U87 mitochondrial function. […] U87 were treated overnight with LDH5 then with controls 100 uM FCCP (depolarizer) or 200 ng/mL staurosporine (hyperpolarizer) for 10 min. Cells were then loaded with the mitochondrial membrane potential sensitive dye Mitotracker CMXRos for 15 min then fixed in 2% PF. Fluorescence intensity was measured by flow cytometry.
FIG. 31. U87 mitochondrial function. […] U87 were treated overnight with LDH5. Cells were fixed in 2% PF and immunostained with an anti-mitochondrial antibody and phalloidin (actin) Mitochondrial and cell surface area were calculated by Nuance software.
FIG. 32. U87 mitochondrial function. […] U87 were treated overnight with LDH5 then with 200 ng/mL staurosporine for 5 or 24 hours. Cells were then trypsinized, stained with Annexin 594 and analyzed by flow cytometry.
Experimental wells were pulsed with 50 ug/mL LDH-A488 for 24 hours as indicated (control wells received no LDH) at 37° C. Cells were treated for 2 min with 0.5M acetic acid+150 mM NaCl (pH 2.5), followed by 4 subsequent washes in RPMI+10% FBS. […] (See FIGS. 31-32).

[2] = system: glioblastoma cell line U87; experiment: IL-6 gene expression in glioblastoma cell line U87; type: cell-based
[3] = 156 U/L enzymatically active LDH5 from human liver, monocytes
[4] = U87 treated overnight with LDH5

LDH5: purified native lactate dehydrogenase isoenzyme 5, alpha only tetramer; fluorescently labeled in uptake tests
NK cell NKG2D expression or degranulation (primary human NK cells): neither lactate nor LDH-5 alone directly impacted | MICB gene expression compared with medium alone [1, 3]: 7.85 fold induction | ULBP-1 gene expression compared with medium alone [1, 3]: 13.26 fold induction | Lowest concentration of purified native LDH5 that induced transcription of MICB and ULBP-1 ([1]; monocytes from healthy donors, 18 h, qPCR, FIG. 2 panel G): 156 U/L | LDH5 concentration that induced a maximal increase in NKG2D ligand transcription ([1]; monocytes, concentrations above this induced less transcription): 625 U/L | Viability / staurosporine induced apoptosis (Annexin) (U87; U87 overnight LDH5, then 200 ng/mL staurosporine for 5 or 24 hours): does not reduce viability, nor rescue from staurosporine induced apoptosis | Mitochondrial membrane potential (Mitotracker CMXRos) (U87; [4]): depolarizes mitochondrial membrane | Mitochondrial surface area (U87; [4]): does not change | IL-6 gene expression [2]: induces IL-6 gene expression
